Like-named read-outs stand apart in the source and are kept apart here.
Tests used:
Format in all cases: cell-based
A431 = experiment: Cell growth inhibition assay (CellTiter-Glo), A431; conditions: Homo sapiens, A-431, 72 h, A431 cells, three days, read-out: A431 GI50
Summary of the method: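 This growth inhibition assay reports GI50, the compound concentration producing 50% inhibition of cell growth relative to DMSO. Seeded cells (90 μL medium per well, 96-well Corning 3610 plates, overnight at 37° C.) received 10 μL of compound diluted 1:100 from a 1,000× DMSO stock. Luminescence was measured on Envision (PerkinElmer) and analyzed in GraphPad Prism 9.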

NCI-H2073 = experiment: Cell growth inhibition assay (CellTiter-Glo), NCI-H2073; conditions: 72 h; Table 8; NCI-H2073 cells, three days
Protocol: Cells were seeded in a 96-well plate (Corning 3610) with 90 μL of culture medium per well, and plates were incubated at 37° C. overnight. A 1,000× DMSO stock solution of the desired compound was prepared the following day. A compound dilution plate was prepared by diluting the stock solution 1:100 in the corresponding cell culture medium, 10 μL of the diluted compound solution was added to each 96-well plate well containing the seeded cells. […] The content of the wells was mixed by shaking continuously for 10 min, and luminescence was measured using Envision (PerkinElmer). The data were analyzed with GraphPad Prism 9 (see FIG. 50).
(§1) Table 6, Table 7, and Table 8 list the cell growth inhibition results, where Gls0 represents the compound concentration to cause 50% cell growth inhibition in comparison with DMSO.

HCC827 = experiment: Cell growth inhibition assay (CellTiter-Glo), HCC827; conditions: Homo sapiens, 72 h, Table 8, HCC827 cells, three days
Protocol: (§2) HCC827_LTC and HCC827_DTC cell lines were generated by first transducing HCC827 cells (ATCC) with lentiviral particles expressing codon-optimized human EGFR L858R/T790M/C797S (LTC) mutant or Del19/T790M/C797S (DTC) mutant, and then selecting under 5 μg/ml puromycin treatment for a week. The endogenous EGFR alleles were subsequently abolished using the Alt-R™ CRISPR-Cas9 technology (Integrated DNA Technologies). Single clones of HCC827_LTC and HCC827_DTC were selected and validated for endogenous EGFR knockout using Sanger sequencing.
(§3) Cells were seeded in a 96-well plate (Corning 3610) with 90 μL of culture medium per well, and plates were incubated at 37° C. overnight. A 1,000× DMSO stock solution of the desired compound was prepared the following day. A compound dilution plate was prepared by diluting the stock solution 1:100 in the corresponding cell culture medium, 10 μL of the diluted compound solution was added to each 96-well plate well containing the seeded cells. Then, the cells were cultured at 37° C. for three days following compound treatment, 100 μL of CellTiter-Glo reagents (Promega G7573) was added to each well of the 96-well plate. The content of the wells was mixed by shaking continuously for 10 min, and luminescence was measured using Envision (PerkinElmer). The data were analyzed with GraphPad Prism 9 (see FIG. 50).
as §1

HCC827_LTC = experiment: Cell growth inhibition assay (CellTiter-Glo), HCC827_LTC; conditions: 72 h; Table 8; HCC827 expressing human EGFR L858R/T790M/C797S, endogenous EGFR knockout, three days
Protocol: as §2, §3, §1

HCC827_DTC = experiment: Cell growth inhibition assay (CellTiter-Glo), HCC827_DTC; conditions: 72 h; Table 8; HCC827 expressing human EGFR Del19/T790M/C797S, endogenous EGFR knockout, three days
Protocol: as §2, §3, §1

A431 (EGFR_WT) = molecular target: T1, A431 (EGFR_WT) (Homo sapiens, UniProt P00533); experiment: EGFR degradation assay (western blot), A431 cells; conditions: compounds 24 h, western blot, read-out: A431 DC50
T1 construct: endogenous in cells; host or cells: A431, NCI-H2073, NCI-H292
Protocol: A431 (EGFR_WT), NCl-H2073 (EGFR_WT), NCl-H292 (EGFR_WT), BaF3_YVAM (Her2_A775insYVAM), BaF3_SVD (EGFR_D770insSVD), BaF3_ASV (EGFR_A776inASV), or BaF3_DTC (EGFR_Exon19del/T790M/C797S) cells were seeded in a 24-well plate at a density of 4×10^5 cells per well for EGFR WT cells and 8× cells per well for EGFR or Her2 mutant cells, and the plates were incubated overnight. The cells were treated with the desired compounds for 24 h. The culture medium was removed, and 100 μL of RIPA buffer (Beyotime, P0013B) containing 1% Protease Inhibitor Cocktail (Bimake, B14001), 1% Phosphatase Inhibitor Cocktail 2 (Sigma, P5726), and 1% Phosphatase Inhibitor Cocktail 3 (Sigma, P0044) were added to lyse the cells. Then, the cell lysates were transferred to 1.5 mL microcentrifuge tubes and centrifuged at 12,000 rpm and 4° C. for 30 min. The supernatants were transferred into new tubes, and the protein concentration was determined using the BCA protein quantification method. All samples were diluted to the same concentration using RIPA buffer, loading buffer was added, samples were denatured, and 15 μg of protein per lane was loaded onto a SurePAGE 4-20% Bis-Tris gel. Samples were separated via electrophoresis in MOPS running buffer at 180 V for 100 min. Then, proteins were transferred onto PVDF membranes using the MiniBlot™ Electrophoretic Transfer Cell Device (Beyotime, E6050). The membrane was blocked using block buffer (LI-COR 927-60001) to prevent non-specific binding. The membrane was incubated with primary antibodies (1:500 dilution, EGFR-CST4405, 1:2000 dilution, Tubulin-ABclonal #AC021) at 4° C. overnight. The membrane was washed three times with 1× TBST buffer for 15 min each. The membrane was incubated with secondary antibodies IRDye 680RD Goat anti-Rabbit IgG Secondary Antibody (1:2000 dilution, LI-COR 926-68071) and IRDye 800CW Goat anti-Mouse IgG Secondary Antibody (1:2000 dilution, LI-COR 926-32210). Finally, the membrane was washed again with 1× TBST buffer 3 times. Fluorescence was detected using the Odyssey CLx Imaging System, and the data were analyzed with Empiria Studio Software and GraphPad Prism 9. Table 4 and Table 5 list the degradation results, where the degradation potency is represented by DC50, the concentration of compounds to cause the degradation of 50% of the corresponding proteins. FIGS. 45-49 show western blots illustrating the EGFR degradative activity of exemplary Compound of the present disclosure and a comparator Compound A in different cell lines 24 h after administration. The Compound referred herein as Compound A is disclosed in WO 2022/171123 A1 (see, compound 133, page 46; published Aug. 18, 2022). WO 2022/171123 A1 discloses phosphine oxide derived molecules with EGFR degradation activity.

[1] = tested on: BaF3_DTC (EGFR_Exon19del/T790M/C797S); experiment: EGFR degradation assay (western blot), BaF3_DTC cells; conditions: BaF3_DTC cells (EGFR_Exon19del/T790M/C797S), compounds 24 h, western blot; read-out: BaF3_DTC DC50
Summary of the method: (§4)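 Cells seeded overnight, then exposed to compounds for 24 h; lysates run on western blot, EGFR probed with tubulin loading control and fluorescent secondary detection. DC50 = concentration giving 50% EGFR degradation.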

[2] = molecular target: T2, BaF3_ASV (EGFR_A776inASV) (Homo sapiens, UniProt P00533, DUP767-769); experiment: EGFR degradation assay (western blot), BaF3_ASV cells; conditions: BaF3_ASV cells, compounds 24 h, western blot; read-out: BaF3_ASV DC50
T2 construct: expressed in transfected cells; host or cells: Ba/F3 (engineered)
Summary of the method: as §4

BaF3_DTC = experiment: Cell growth inhibition assay (CellTiter-Glo), BaF3_DTC; conditions: 72 h; Table 6; BaF3_DTC cells, three days, CellTiter-Glo; read-out: BaF3_DTC GI50
BaF3_ASV = experiment: Cell growth inhibition assay (CellTiter-Glo), BaF3_ASV; conditions: 72 h; Table 6; BaF3_ASV cells, three days, CellTiter-Glo; read-out: BaF3_ASV GI50

T1 sequence (P00533 25-1210): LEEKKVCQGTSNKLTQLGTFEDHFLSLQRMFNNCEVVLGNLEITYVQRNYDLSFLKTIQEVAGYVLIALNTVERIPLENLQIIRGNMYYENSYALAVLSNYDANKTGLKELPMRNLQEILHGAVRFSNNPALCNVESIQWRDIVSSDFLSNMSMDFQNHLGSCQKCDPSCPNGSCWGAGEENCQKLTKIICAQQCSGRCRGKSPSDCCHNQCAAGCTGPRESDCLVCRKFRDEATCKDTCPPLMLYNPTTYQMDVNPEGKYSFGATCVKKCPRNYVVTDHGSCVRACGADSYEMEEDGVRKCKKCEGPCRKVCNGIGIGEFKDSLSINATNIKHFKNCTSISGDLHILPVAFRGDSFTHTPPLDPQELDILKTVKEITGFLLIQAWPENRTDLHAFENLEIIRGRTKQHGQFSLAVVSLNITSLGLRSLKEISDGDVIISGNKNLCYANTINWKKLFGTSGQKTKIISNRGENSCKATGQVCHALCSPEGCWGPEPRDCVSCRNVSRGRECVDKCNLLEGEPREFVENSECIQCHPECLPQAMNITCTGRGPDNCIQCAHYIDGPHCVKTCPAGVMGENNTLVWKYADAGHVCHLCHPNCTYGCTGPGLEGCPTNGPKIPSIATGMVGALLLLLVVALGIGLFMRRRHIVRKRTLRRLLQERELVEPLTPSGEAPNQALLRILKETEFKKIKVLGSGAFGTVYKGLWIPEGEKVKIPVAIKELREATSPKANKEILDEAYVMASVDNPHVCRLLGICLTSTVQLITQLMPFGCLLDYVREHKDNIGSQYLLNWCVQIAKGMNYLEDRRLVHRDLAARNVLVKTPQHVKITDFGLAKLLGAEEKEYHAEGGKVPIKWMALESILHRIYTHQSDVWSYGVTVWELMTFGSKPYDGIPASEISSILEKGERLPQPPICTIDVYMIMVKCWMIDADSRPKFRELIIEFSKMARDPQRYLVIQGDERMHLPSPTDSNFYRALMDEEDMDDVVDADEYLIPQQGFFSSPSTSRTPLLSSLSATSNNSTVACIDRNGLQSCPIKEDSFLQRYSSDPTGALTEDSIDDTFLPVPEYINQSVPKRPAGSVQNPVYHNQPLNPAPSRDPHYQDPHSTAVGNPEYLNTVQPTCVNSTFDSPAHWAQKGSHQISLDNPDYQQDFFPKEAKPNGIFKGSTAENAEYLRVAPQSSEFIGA
T2 sequence (P00533 with tags, fused parts or gaps DUP767-769): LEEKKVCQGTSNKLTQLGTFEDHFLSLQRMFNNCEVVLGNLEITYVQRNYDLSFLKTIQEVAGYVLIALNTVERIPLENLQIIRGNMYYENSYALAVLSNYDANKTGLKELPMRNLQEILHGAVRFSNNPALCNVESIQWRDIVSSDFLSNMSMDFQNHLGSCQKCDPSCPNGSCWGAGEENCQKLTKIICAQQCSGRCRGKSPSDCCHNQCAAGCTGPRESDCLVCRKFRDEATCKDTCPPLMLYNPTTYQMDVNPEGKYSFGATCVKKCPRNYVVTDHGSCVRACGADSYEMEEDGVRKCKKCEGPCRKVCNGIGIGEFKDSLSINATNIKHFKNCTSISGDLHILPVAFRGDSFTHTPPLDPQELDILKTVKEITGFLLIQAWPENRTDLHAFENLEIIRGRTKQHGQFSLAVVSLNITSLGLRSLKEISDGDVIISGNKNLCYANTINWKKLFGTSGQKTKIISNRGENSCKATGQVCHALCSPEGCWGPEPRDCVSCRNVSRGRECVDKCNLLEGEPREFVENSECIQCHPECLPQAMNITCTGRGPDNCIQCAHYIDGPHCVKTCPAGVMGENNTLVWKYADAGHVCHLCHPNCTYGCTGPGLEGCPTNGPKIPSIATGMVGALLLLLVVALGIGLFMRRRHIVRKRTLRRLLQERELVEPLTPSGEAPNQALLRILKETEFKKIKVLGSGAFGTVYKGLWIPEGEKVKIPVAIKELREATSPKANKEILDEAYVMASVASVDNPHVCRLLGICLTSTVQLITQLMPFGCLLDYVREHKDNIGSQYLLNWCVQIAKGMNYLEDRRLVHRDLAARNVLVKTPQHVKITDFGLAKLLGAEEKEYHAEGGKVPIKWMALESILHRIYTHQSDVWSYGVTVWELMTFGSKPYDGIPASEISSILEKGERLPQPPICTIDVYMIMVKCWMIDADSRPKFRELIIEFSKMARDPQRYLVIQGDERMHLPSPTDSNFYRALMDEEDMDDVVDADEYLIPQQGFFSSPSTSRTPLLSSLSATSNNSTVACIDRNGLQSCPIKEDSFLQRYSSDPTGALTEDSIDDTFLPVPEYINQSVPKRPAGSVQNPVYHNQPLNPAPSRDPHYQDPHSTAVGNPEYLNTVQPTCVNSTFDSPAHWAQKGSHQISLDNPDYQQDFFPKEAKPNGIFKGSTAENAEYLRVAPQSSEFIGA

Row | Compound | GI50 (A431; Table 8) | GI50 (NCI-H2073) | GI50 (HCC827) | GI50 (HCC827_LTC) | GI50 (HCC827_DTC) | DC50 (A431 (EGFR_WT)) | DC50 [1] | DC50 [2] | GI50 (A431; Table 6, CellTiter-Glo) | GI50 (BaF3_DTC) | GI50 (BaF3_ASV)
1 | COc1cc(N2CCN(CC3CCN(c4ccc5c(c4)C(=O)N(C4CCC(=O)NC4=O)C5=O)CC3)CC2)c(-c2cnn(C)c2)cc1Nc1ncc(Br)c(Nc2ccc3nccnc3c2NS(C)(=O)=O)n1 (stereo not shown) [Compound 84, N-(6-((5-bromo-2-((4-(4-((1-(2-(2,6-dioxopiperidin-3-yl)-1,3-dioxoisoindolin-5-yl)piperidin-4-yl)methyl)piperazin-1-yl)-2-methoxy-5-(1-methyl-1H-pyrazol-4-yl)phenyl)amino)pyrimidin-4-yl)amino)quinoxalin-5-yl)methanesulfonamide] | > 3000 nM | > 3000 nM | 1.18 nM | 3.06 nM | 10.7 nM | – | – | – | – | – | –
2 | COc1cc(N2CCC(N3CCN(CC4CCN(c5ccc6c(c5)C(=O)N(C5CCC(=O)NC5=O)C6=O)CC4)CC3)CC2)c(-c2cnn(C)c2)cc1Nc1ncc(Br)c(Nc2ccc3nccnc3c2NS(C)(=O)=O)n1 (stereo not shown) [Compound 85, N-(6-((5-bromo-2-((4-(4-(4-((1-(2-(2,6-dioxopiperidin-3-yl)-1,3-dioxoisoindolin-5-yl)piperidin-4-yl)methyl)piperazin-1-yl)piperidin-1-yl)-2-methoxy-5-(1-methyl-1H-pyrazol-4-yl)phenyl)amino)pyrimidin-4-yl)amino)quinoxalin-5-yl)methanesulfonamide] | > 3000 nM | > 3000 nM | 2.72 nM | 3.57 nM | 7.7 nM | – | – | – | – | – | –
3 | CCc1cc(Nc2ncc(Br)c(Nc3ccc4nccnc4c3NS(C)(=O)=O)n2)c(OC)cc1N1CCC(N2CCC(C(=O)N3CCN(c4ccc5c(c4)CN([C@H]4CCC(=O)NC4=O)C5=O)CC3)CC2)CC1 [Compound 41, (S)-N-(6-((5-bromo-2-((4-(4-(4-(2-(2,6-dioxopiperidin-3-yl)-1-oxoisoindolin-5-yl)piperazine-1-carbonyl)-[1,4′-bipiperidin]-1′-yl)-5-ethyl-2-methoxyphenyl)amino)pyrimidin-4-yl)amino)quinoxalin-5-yl)methanesulfonamide] | – | – | – | – | – | > 1000 nM | > 100 nM | 335 nM | > 1000 nM | 123 nM | 52.7 nM
4 | CCc1cc(Nc2ncc(Br)c(Nc3ccc4nccnc4c3NS(C)(=O)=O)n2)c(OC)cc1N1CCC(N2CCN(CCc3cccc4c3C(=O)N(C3CCC(=O)NC3=O)C4)CC2)CC1 (stereo not shown) [Compound 8, N-(6-((5-bromo-2-((4-(4-(4-(2-(2-(2,6-dioxopiperidin-3-yl)-3-oxoisoindolin-4-yl)ethyl)piperazin-1-yl)piperidin-1-yl)-5-ethyl-2-methoxyphenyl)amino)pyrimidin-4-yl)amino)quinoxalin-5-yl)methanesulfonamide] | – | – | – | – | – | > 1000 nM | 23.3 nM | > 1000 nM | > 1000 nM | 24.7 nM | 858 nM

Further lines, with some results ahead:

Row | GI50 (A431; Table 8) | GI50 (NCI-H2073) | GI50 (HCC827) | GI50 (HCC827_LTC) | GI50 (HCC827_DTC) | Compound | DC50 (A431 (EGFR_WT)) | DC50 [1] | DC50 [2] | GI50 (A431; Table 6, CellTiter-Glo) | GI50 (BaF3_DTC) | GI50 (BaF3_ASV)
5 | > 3000 nM | > 3000 nM | 5.51 nM | 8.58 nM | 19.4 nM | COc1cc(N2CCC(CN3CCN(c4ccc5c(c4)C(=O)N(C4CCC(=O)NC4=O)C5=O)CC3)CC2)c(-c2cnn(C)c2)cc1Nc1ncc(Br)c(Nc2ccc3nccnc3c2NS(C)(=O)=O)n1 (stereo not shown) [Compound 83, N-(6-((5-bromo-2-((4-(4-((4-(2-(2,6-dioxopiperidin-3-yl)-1,3-dioxoisoindolin-5-yl)piperazin-1-yl)methyl)piperidin-1-yl)-2-methoxy-5-(1-methyl-1H-pyrazol-4-yl)phenyl)amino)pyrimidin-4-yl)amino)quinoxalin-5-yl)methanesulfonamide] | – | – | – | – | – | –
6 | 436 nM | 403 nM | 1 nM | 1.81 nM | 1.96 nM | COc1cc(N2CCC(N3CCN(CCc4ccc(NC5CCC(=O)NC5=O)cc4)CC3)CC2)c(-c2cnn(C)c2)cc1Nc1ncc(Br)c(Nc2ccc3nccnc3c2NS(C)(=O)=O)n1 (stereo not shown) [Compound 78, N-(6-((5-bromo-2-((4-(4-(4-(4-((2,6-dioxopiperidin-3-yl)amino)phenethyl)piperazin-1-yl)piperidin-1-yl)-2-methoxy-5-(1-methyl-1H-pyrazol-4-yl)phenyl)amino)pyrimidin-4-yl)amino)quinoxalin-5-yl)methanesulfonamide] | – | – | – | – | – | –
7 | 746 nM | > 3000 nM | 2.41 nM | 2.03 nM | 4.21 nM | COc1cc(N2CCC(N3CC4(CN(C(=O)CC5(O)CCN(c6ccc(NC7CCC(=O)NC7=O)cc6F)CC5)C4)C3)CC2)c(-c2cnn(C)c2)cc1Nc1ncc(Br)c(Nc2ccc3nccnc3c2NS(C)(=O)=O)n1 (stereo not shown) [Compound 81, N-(6-((5-bromo-2-((4-(4-(6-(2-(1-(4-((2,6-dioxopiperidin-3-yl)amino)-2-fluorophenyl)-4-hydroxypiperidin-4-yl)acetyl)-2,6-diazaspiro[3.3]heptan-2-yl)piperidin-1-yl)-2-methoxy-5-(1-methyl-1H-pyrazol-4-yl)phenyl)amino)pyrimidin-4-yl)amino)quinoxalin-5-yl)methanesulfonamide] | – | – | – | – | – | –

From patent US20250002473A1, “QUINOXALINE DERIVED SULFONAMIDES WITH EGFR DEGRADATION ACTIVITIES AND THEIR USES THEREOF” (Accutar Biotechnology Inc., priority 2023, published 2025)
